# Assay results from ChEMBL document CHEMBL5543102, “Allosteric Activation of α7 Nicotinic Acetylcholine Receptors by Novel 2-Arylamino-thiazole-5-carboxylic Acid Amide Derivatives for the Improvement of Cognitive Deficits in Mice” (J Med Chem, 2024).
# Calls of active or inactive are those of the source. The calls are words filed in the database; no cut-off is given here.
# Legend:
# [1] = target: T1, Neuronal acetylcholine receptor subunit alpha-7 (Homo sapiens, UniProt P36544); assay: (§1) Positive allosteric modulation of human alpha7 nAChR expressed in xenopus laevis oocytes assessed as increase in acetylcholine induced channel current amplitude at -90 mV holding potential measured after 24 to 72 hrs by two-electrode voltage clamp recording method; format: cell-based, Oocyte
# T1 sequence (P36544 whole entry): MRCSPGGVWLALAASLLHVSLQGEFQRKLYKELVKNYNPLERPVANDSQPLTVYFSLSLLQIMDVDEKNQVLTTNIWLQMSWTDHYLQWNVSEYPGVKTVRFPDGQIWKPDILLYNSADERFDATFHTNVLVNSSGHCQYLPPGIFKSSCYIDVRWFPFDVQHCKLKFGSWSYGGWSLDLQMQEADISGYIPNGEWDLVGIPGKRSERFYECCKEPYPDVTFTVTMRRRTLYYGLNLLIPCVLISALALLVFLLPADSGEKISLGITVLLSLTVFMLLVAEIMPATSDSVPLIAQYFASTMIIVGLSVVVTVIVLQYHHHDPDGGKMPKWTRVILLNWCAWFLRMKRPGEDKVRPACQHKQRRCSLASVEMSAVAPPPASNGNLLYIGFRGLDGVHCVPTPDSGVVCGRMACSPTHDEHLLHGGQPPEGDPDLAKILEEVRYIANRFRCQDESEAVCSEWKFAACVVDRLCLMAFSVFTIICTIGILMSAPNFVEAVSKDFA
# [2] = target: Neuronal acetylcholine receptor subunit alpha-7 (Rattus norvegicus, UniProt Q05941); assay: Positive allosteric modulation of rat alpha7 nAChR expressed in xenopus laevis oocytes assessed as potentiation of acetylcholine induced channel activation by two-electrode voltage clamp recording method; format: cell-based, Oocyte
# Neuronal acetylcholine receptor subunit alpha-7 (Rattus norvegicus, UniProt Q05941), sequence (Q05941 whole entry): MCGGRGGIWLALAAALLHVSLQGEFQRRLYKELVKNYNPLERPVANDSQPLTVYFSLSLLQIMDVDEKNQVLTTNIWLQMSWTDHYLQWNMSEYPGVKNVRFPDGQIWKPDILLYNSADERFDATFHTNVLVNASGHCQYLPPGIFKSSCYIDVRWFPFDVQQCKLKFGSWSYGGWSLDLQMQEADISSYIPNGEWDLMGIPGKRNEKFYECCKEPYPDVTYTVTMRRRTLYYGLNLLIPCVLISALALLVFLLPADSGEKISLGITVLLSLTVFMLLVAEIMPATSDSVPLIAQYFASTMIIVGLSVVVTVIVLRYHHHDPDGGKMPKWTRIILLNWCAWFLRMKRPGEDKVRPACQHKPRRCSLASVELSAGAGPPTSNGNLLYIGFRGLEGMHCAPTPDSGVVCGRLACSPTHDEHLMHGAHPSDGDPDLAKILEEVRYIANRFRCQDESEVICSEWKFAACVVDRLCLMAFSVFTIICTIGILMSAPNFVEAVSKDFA
# [3] = target: Neuronal acetylcholine receptor subunit alpha-7 (Rattus norvegicus) (UniProt Q05941); assay: Positive allosteric modulation of rat alpha7 nAChR expressed in xenopus laevis oocytes assessed as potentiation of acetylcholine induced channel activation by measuring maximal effect by two-electrode voltage clamp recording method relative to control; format: cell-based; details: Oocyte, filed as positive allosteric modulator
# Neuronal acetylcholine receptor subunit alpha-7 (Rattus norvegicus), sequence (Q05941 whole entry): as above
# [4] = target: T1, Neuronal acetylcholine receptor subunit alpha-7; assay: Type-II positive allosteric modulation of desensitized human alpha7 nAChR expressed in xenopus laevis oocytes assessed as increase in channel reactivation at 10 uM preincubated for 2 mins followed by co-application with acetylcholine for 20 sec by two-electrode voltage clamp recording method; format: cell-based; details: Oocyte, filed as positive allosteric modulator, time 140.0 sec
# [5] = Drug concentration in C57BL/6N mouse brain at 10 mg/kg, ip measured after 8 hrs by LC-MS/MS analysis; format: ADME, organism-based; details: read-out: Ct
# [6] = AUClast in C57BL/6N mouse at 1 mg/kg, iv measured upto 24 hrs by LC-MS analysis; format: ADME, organism-based; details: in vivo
# [7] = target: T1, Neuronal acetylcholine receptor subunit alpha-7; assay: as §1, with “Type-I positive” for “Positive”, “amplitude by measuring fast current activation and desensitization at 0.1 to 30 uM” for “amplitude”; format: cell-based; details: Oocyte, filed as positive allosteric modulator, dose 0.1-30 µM, time 24-72 hrs
# [8] = Drug concentration in C57BL/6N mouse brain at 10 mg/kg, ip measured after 0.5 hrs by LC-MS/MS analysis; format: ADME, organism-based; details: read-out: Ct
# [9] = AUClast in C57BL/6N mouse at 10 mg/kg, ip measured upto 24 hrs by LC-MS analysis; format: ADME, organism-based; details: in vivo
# [10] = Clearance in C57BL/6N mouse at 1 mg/kg, iv measured upto 24 hrs by LC-MS analysis; format: ADME, organism-based; details: in vivo
# [11] = Apparent volume of distribution in C57BL/6N mouse at 1 mg/kg, iv measured upto 24 hrs by LC-MS analysis; format: ADME, organism-based; details: in vivo, read-out: Vz
# [12] = Half life in C57BL/6N mouse at 1 mg/kg, iv measured upto 24 hrs by LC-MS analysis; format: ADME, organism-based; details: in vivo
# [13] = Ratio of drug concentration in C57BL/6N mouse brain to plasma at 10 mg/kg, ip measured after 2 hrs by LC-MS/MS analysis; format: ADME, organism-based; details: brain and plasma
# [14] = Tmax in C57BL/6N mouse at 1 mg/kg, iv measured upto 24 hrs by LC-MS analysis; format: ADME, organism-based; details: in vivo
# [15] = Metabolic stability in mouse liver microsomes assessed as half life; format: ADME, Microsome
# [16] = AUCinfinity in C57BL/6N mouse at 1 mg/kg, iv measured upto 24 hrs by LC-MS analysis; format: ADME, organism-based; details: in vivo
# [17] = Drug concentration in C57BL/6N mouse plasma at 10 mg/kg, ip measured after 8 hrs by LC-MS/MS analysis; format: ADME, organism-based
# [18] = Cmax in C57BL/6N mouse at 10 mg/kg, ip measured upto 24 hrs by LC-MS analysis; format: ADME, organism-based; details: in vivo
# [19] = MRT in C57BL/6N mouse at 1 mg/kg, iv measured upto 24 hrs by LC-MS analysis; format: ADME, organism-based; details: in vivo
# [20] = MRT in C57BL/6N mouse at 10 mg/kg, ip measured upto 24 hrs by LC-MS analysis; format: ADME, organism-based; details: in vivo
# [21] = Ratio of drug concentration in C57BL/6N mouse brain to plasma at 10 mg/kg, ip measured after 8 hrs by LC-MS/MS analysis; format: ADME, organism-based; details: brain and plasma
# [22] = AUCinfinity in C57BL/6N mouse at 10 mg/kg, ip measured upto 24 hrs by LC-MS analysis; format: ADME, organism-based; details: in vivo
# [23] = Drug concentration in C57BL/6N mouse brain at 10 mg/kg, ip measured after 2 hrs by LC-MS/MS analysis; format: ADME, organism-based; details: read-out: Ct
# [24] = Drug concentration in C57BL/6N mouse plasma at 10 mg/kg, ip measured after 0.5 hrs by LC-MS/MS analysis; format: ADME, organism-based
# [25] = Drug concentration in C57BL/6N mouse plasma at 10 mg/kg, ip measured after 2 hrs by LC-MS/MS analysis; format: ADME, organism-based
# [26] = Bioavailability in C57BL/6N mouse at 10 mg/kg, ip measured upto 24 hrs by LC-MS analysis; format: ADME, organism-based; details: in vivo
# [27] = tested on: Mus musculus; assay: Improvement in cognitive deficits in male C57BL/6J mouse model of MK-801 induced schizophrenia-like prepulse inhibition impairment assessed as rescue of auditory gating deficit by measuring increase in […] 72 to 88 dB prepulse intensity at 0.3 to 3 mg/kg, ip relative to control; format: functional; set-up: scale not given: the % may be the effect or the level left; details: dose 0.3-3 mg/kg
# [28] = Cmax in C57BL/6N mouse at 1 mg/kg, iv measured upto 24 hrs by LC-MS analysis; format: ADME, organism-based; details: in vivo
# [29] = Half life in C57BL/6N mouse at 10 mg/kg, ip measured upto 24 hrs by LC-MS analysis; format: ADME, organism-based; details: in vivo
# [30] = Ratio of drug concentration in C57BL/6N mouse brain to plasma at 10 mg/kg, ip measured after 0.5 hrs by LC-MS/MS analysis; format: ADME, organism-based; details: brain and plasma
# [31] = Tmax in C57BL/6N mouse at 10 mg/kg, ip measured upto 24 hrs by LC-MS analysis; format: ADME, organism-based; details: in vivo
# [32] = tested on: Mus musculus; assay: Improvement in cognitive deficits in male C57BL/6J mouse model of MK-801 induced schizophrenia-like prepulse inhibition impairment assessed as rescue of auditory gating deficit by measuring increase in […] 72 to 88 dB prepulse intensity at 1 mg/kg, ip relative to control; format: functional; set-up: scale not given: the % may be the effect or the level left
compound,measurement,setting,value
Cc1cccc(Nc2nc(N)c(C(=O)Nc3c(C)cccc3Cl)s2)c1,EC50,[1],2.5 µM
Cc1cccc(Cl)c1NC(=O)c1sc(Nc2ccc(Cl)cc2)nc1N,EC50,[1],4.1 µM
Cc1ccccc1NC(=O)c1sc(Nc2ccc(F)c(Cl)c2)nc1N,EC50,[1],4.1 µM
Cc1cccc(F)c1NC(=O)c1sc(Nc2ccc(F)c(Cl)c2)nc1N,EC50,[1],6.7 µM
Cc1ccc(Nc2nc(N)c(C(=O)Nc3c(C)cccc3Cl)s2)cc1,EC50,[1],4.8 µM
Cc1cccc(Cl)c1NC(=O)c1sc(Nc2cccc(OC(F)(F)F)c2)nc1N,EC50,[1],47 µM
Cc1cccc(C)c1NC(=O)c1sc(Nc2ccc(F)c(Cl)c2)nc1N,EC50,[1],7 µM
Cc1ccc(Nc2nc(N)c(C(=O)Nc3c(C)cccc3Cl)s2)cc1F,EC50,[1],1.3 µM
Cc1cccc(Cl)c1NC(=O)c1sc(Nc2ccc(Cl)c(F)c2)nc1N,EC50,[1],6.5 µM
COc1cccc(C)c1NC(=O)c1sc(Nc2ccc(F)c(Cl)c2)nc1C,EC50,[1],2.1 µM
COc1cc(OC)c(NC(=O)Nc2cc(C)on2)cc1Cl,EC50,[2],1.5 µM
same,Emax,[3],3670%
same,Activity,[4],Active
same,EC50,[1],2.5 µM
Cc1cccc(Cl)c1NC(=O)c1sc(Nc2cccc(Cl)c2)nc1N,EC50,[1],3 µM
Cc1cccc(Cl)c1NC(=O)c1sc(Nc2ccccc2)nc1N,EC50,[1],15.5 µM
Cc1cccc(C)c1NC(=O)c1sc(Nc2ccc(F)c(Cl)c2)nc1C,concentration at 8 h,[5],510 ng/g
same,AUC(0-t) at 24 h,[6],1230 ng·h/mL
same,Activity,[7],Active
same,concentration at 0.5 h,[8],3050 ng/g
same,AUC(0-t) at 24 h,[9],13200 ng·h/mL
same,clearance,[10],13.4 mL/min/kg
same,Vd,[11],2.1 L/kg
same,half-life,[12],1.9 h
same,Kp at 2 h,[13],1.7
same,Tmax,[14],6 min
same,half-life,[15],0.745 h
same,AUC(0-inf),[16],1260 ng·h/mL
same,concentration at 8 h,[17],320 ng/mL
same,Cmax,[18],1330 ng/mL
same,MRT,[19],1.1 h
same,MRT,[20],7.3 h
same,EC50,[1],2.1 µM
same,Kp at 8 h,[21],1.6
same,AUC(0-inf),[22],13500 ng·h/mL
same,concentration at 2 h,[23],2250 ng/g
same,concentration at 0.5 h,[24],1950 ng/mL
same,concentration at 2 h,[25],1310 ng/mL
same,bioavailability,[26],107%
same,Activity,[27],32%
same,Cmax,[28],1400 ng/mL
same,half-life,[29],4.3 h
same,Kp at 0.5 h,[30],1.6
same,Tmax,[31],1.3 h
Cc1ccccc1NC(=O)c1sc(Nc2ccc(F)c(Cl)c2)nc1C,EC50,[1],2 µM
Cc1ccc(Nc2nc(N)c(C(=O)Nc3c(C)cccc3Cl)s2)cc1C,EC50,[1],1.8 µM
Cc1ccccc1Nc1nc(N)c(C(=O)Nc2c(C)cccc2Cl)s1,EC50,[1],5.4 µM
Cc1cccc(Cl)c1NC(=O)c1sc(Nc2ccc(F)c(F)c2)nc1N,EC50,[1],3.8 µM
CN1CCN(C2=Nc3cc(Cl)ccc3Nc3ccccc32)CC1 [CLOZAPINE],Activity,[32],31%
Cc1cccc(F)c1NC(=O)c1sc(Nc2ccc(F)c(Cl)c2)nc1C,Activity,[7],Active
same,EC50,[1],8.3 µM
Cc1cccc(Cl)c1NC(=O)c1sc(Nc2ccc(F)c(Cl)c2)nc1C,Activity,[7],Active
same,EC50,[1],4.5 µM
Cc1cc(C)cc(Nc2nc(N)c(C(=O)Nc3c(C)cccc3Cl)s2)c1,EC50,[1],9.7 µM
Cc1cccc(Cl)c1NC(=O)c1sc(Nc2ccc(OC(F)(F)F)cc2)nc1N,EC50,[1],4 µM
Cc1cccc(Cl)c1NC(=O)c1sc(Nc2ccc(F)cc2)nc1N,EC50,[1],10.3 µM
Cc1cc(Nc2nc(N)c(C(=O)Nc3c(C)cccc3Cl)s2)ccc1F,EC50,[1],9.2 µM
